Holding throughout (experiment): NCI anticancer screen, dose series, 48 h
Test [1] deals with 786-0 renal.
Test [2] relates to HT29 colon.
Test [3] relates to MDA-N.
Test [4] relates to NCI-H23 lung.
The test system of test [5] is OVCAR-5 ovarian.
The test system of test [6] is PC-3 prostate.
The test system of test [7] is SN12C renal.
Test [8] relates to SNB-75 CNS.
Test [9] deals with SR leukemia.
Test [10] concerns T-47D breast.
Test [11] has as its system UO-31 renal.

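Interpolation was linear, between the two tested concentrations surrounding the appropriate level; five concentrations were tested over 48 hours in 96-well plates. TGI denotes the concentration required for complete inhibition of growth.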

`COC(=O)[C@@](C)(COC(=O)C(C)(C)C)NC(=O)OC(C)(C)C`: the TGI in test [1], in test [2], in test [3], in test [4], in test [5] and in test [6] was greater than 100 µM throughout. In addition, the TGI in [7], in [8], in test [9], in [10] and in [11] was greater than 100 µM throughout.
Turning to `COc1ccccc1N=Nc1c(O)c(S(=O)(=O)O)cc2cc(S(=O)(=O)O)ccc12`, the TGI in [1], in [2], in test [3], in [4], in test [5] and in [6] was greater than 100 µM each time. Further, the TGI in test [7], in test [8], in test [9], in test [10] and in [11] was greater than 100 µM each time.
As for `Cc1nc2n(c1/C=C1/C(=O)Nc3ccccc31)CCS2`, the TGI is greater than 100 µM in test [1]; greater than 100 µM in test [2]; 44.4 µM in test [3]; greater than 100 µM in test [4]; greater than 100 µM in [5]; greater than 100 µM in test [6]. Also, the TGI in [7] was greater than 100 µM; in test [8] it was 87 µM; in [10], greater than 100 µM; in test [11] it was greater than 100 µM.
On to `O=C1CC(C(CC(=O)c2ccccc2)c2ccccc2)C(=O)c2ccccc2N1` (configuration not stated), for which the TGI in test [1], in [2], in [3], in test [4], in test [5] and in [6] was greater than 100 µM in each case. Also, the TGI in test [7] is greater than 100 µM; in test [8] it was greater than 100 µM; in test [9] it was greater than 100 µM; in test [10], 64.4 µM; in [11], 40.4 µM.
Regarding `O=S(=O)(c1ccc(-c2nnc(-c3ccc(F)cc3)o2)cc1)c1ccc(-c2nnc(-c3ccc(F)cc3)o2)cc1`, the TGI in test [1], in test [2], in test [3], in test [4], in test [5] and in [6] was greater than 100 µM in each case. Moreover, the TGI in test [7] was greater than 100 µM; in [8] it was 26 µM; in test [10], greater than 100 µM; in test [11] it was greater than 100 µM.
`[O-][n+]1c(CN2CCCCC2)nc2cccc3c2c1-c1ccccc1-3`: the TGI in test [1] was 51.5 µM; in test [2], 51.8 µM; in test [3], 58.4 µM; in test [4], 48.5 µM; in test [5], 50.5 µM; in [6], greater than 100 µM. In addition, the TGI in test [7] was 46.1 µM; in [8], 50.2 µM; in test [9], greater than 100 µM; in [11], 26.3 µM.
`CC(C)(O)C1CC[C@]2(C)[C@H]3CC[C@@H]4[C@@]5(C)CCCC(C)(C)[C@@H]5CC[C@@]4(C)[C@]3(C)CC[C@@H]12` (some centres not stated): the TGI in test [1], in test [2], in test [3], in test [4], in [5] and in [6] was greater than 100 µM in each case. Moreover, the TGI in test [7] and in [10] was greater than 100 µM in each case.
On to `Cc1c(OCc2ccccc2)c(=O)ccn1CCc1c[nH]c2ccccc12`, for which the TGI was 87 µM in test [1]; 71.9 µM in test [2]; 79.9 µM in test [3]; greater than 100 µM in [4]; greater than 100 µM in [5]; greater than 100 µM in test [6]. The TGI in test [7] was greater than 100 µM; in test [9], 79.7 µM; in test [10], 58.1 µM; in test [11], greater than 100 µM.
On to `CC12CCCCC1=[N+]([O-])C(C)(C)N2O` (configuration not stated), for which the TGI in test [1], in [2], in test [3], in test [4], in [5] and in [6] was greater than 100 µM throughout. For the same compound, the TGI in [7], in [9], in test [10] and in test [11] was greater than 100 µM throughout.
On to `O=Nn1c2ccccc2c2cc([N+](=O)[O-])ccc21`, for which the TGI is 68 µM in test [2]; 37.5 µM in test [3]; 38.3 µM in [4]; 47.7 µM in test [5]; 35 µM in test [6]; 37 µM in test [7]. Besides, the results for the TGI in test [8], in test [10] and in [11] were 19.5 µM, greater than 100 µM and 49.2 µM, respectively.
`O=c1[nH]c(=O)n(COCCO)c2ccsc12`: the TGI in [1], in test [2], in test [3], in [4], in [5] and in test [6] was greater than 100 µM throughout. Further, the TGI in [7], in test [8], in test [9] and in test [11] was greater than 100 µM throughout.
For `CCOC(=O)c1c(C)nc2c(c1-c1cn(-c3ccccc3)nc1-c1ccccc1)C(=O)c1ccccc1-2`, the TGI in test [1], in test [2], in test [3], in test [4], in test [5] and in [6] was greater than 100 µM throughout. The TGI in test [7], in [8] and in test [10] was greater than 100 µM in each case.
For `Nc1ccc(Nc2cc(=O)[nH]c(=O)[nH]2)cc1`, the TGI in test [1], in test [2], in test [3], in test [4], in [6] and in [7] was greater than 100 µM in each case. In addition, the TGI in test [9] and in test [10] was greater than 100 µM each time.
On to `COc1ccc(C2OCCN2C)cc1` (configuration not stated), for which the TGI in test [1], in test [2], in test [3], in [4], in test [5] and in [6] was greater than 100 µM each time. For the same compound, the TGI in [8], in test [9], in test [10] and in [11] was greater than 100 µM each time.

The record behind these values is PubChem BioAssay (NCI).
